ChEMBL document CHEMBL1166001, “Manadoperoxides A-D from the Indonesian sponge Plakortis cfr. simplex. Further insights on the structure-activity relationships of simple 1,2-dioxane antimalarials” (J Nat Prod, 2010)

Legend:
Plasmodium falciparum [1] = assay: Antimalarial activity against chloroquine-resistant Plasmodium falciparum W2 after 72 hrs by parasite LDH assay; type: functional, organism-based; details: W2, 72 h
Plasmodium falciparum [2] = assay: Antimalarial activity against chloroquine-sensitive Plasmodium falciparum D10 after 72 hrs by parasite LDH assay; type: functional, organism-based; details: D10, 72 h

| SMILES | IC50 (Plasmodium falciparum [1]) | IC50 (Plasmodium falciparum [2]) |
| --- | --- | --- |
| C/C=C(C)/C=C/CCC[C@]1(OC)C[C@H](C)[C@H](CC(=O)OC)OO1 [MANADOPEROXIDE A] | 3.74 µM | 6.88 µM |
| CC/C=C(C)/C=C/CCC[C@]1(OC)C[C@H](C)[C@H](CC(=O)OC)OO1 [MANADOPEROXIDE B] | 3.69 µM | 6.76 µM |
| COC(=O)C[C@@H]1OO[C@@](CCC/C=C/C(C)=O)(OC)C[C@@H]1C [MANADOPEROXIDE C] | 2.33 µM | 4.54 µM |
| COC(=O)C[C@@H]1OO[C@@](CCC[C@H](O)/C=C(\C)[C@H](C)O)(OC)C[C@@H]1C [MANADOPEROXIDE D] | 7.93 µM | 10.4 µM |
| CC/C=C/[C@H](CC)C[C@@]1(C)C[C@@H](CC)[C@@H](CC(=O)OC)OO1 [PLAKORTIN] | 0.39 µM | – |
